In patent US12378210B2, “Pharmaceutical composition comprising tizoxanide and pharmaceutical use thereof” (BEIJING JUNKE HUAYUAN MED TECH CO., LTD., priority 2020, dated 2025):
“And” between values parts separate entries of the source, which are not always exact repeats. Equal entries are not always repeated. Structures can show the parent of a compound that is named as a salt. Where two headings read alike, the source gives them in different places.

Columns and labels:
[1] = design: species or system SD rats; details: male, SD, rat, in vivo, po
Experimental: 34.75 mg of nitazoxanide was added to 10 mL of 0.5% sodium carboxymethylcellulose solution, and the mixture was mixing homogeneously for later use; 41.67 mg of tizoxanide choline salt of formula (I) prepared in Example 2 was added to 10 mL of 0.5% sodium carboxymethylcellulose solution, and the mixture was mixed homogeneously for later use; 30 mg of tizoxanide was added to 5 mL of 0.5% sodium carboxymethylcellulose solution, followed by addition of 40% aqueous choline hydroxide solution, and the mixture was mixed homogeneously, and then added with 0.5% sodium carboxymethyl cellulose solution to a final volume of 10 mL to obtain a mixture of tizoxanide and choline for later use. […] Provided were male SD rats weighing 180 g to 220 g, 3 rats each group; all animals were fasted for 12 h prior to administration. The rats were separately administered intragastrically with the solution of the nitazoxanide, the solution of the tizoxanide choline salt of formula (I) or the mixture of tizoxanide and choline described above at a dose of 10 mL/kg each. […] The collected blood was added with sodium heparin for anticoagulation, followed by centrifugation to separate plasma, and the plasma was storing at −80° C. for determination. The content of tizoxanide in plasma was determined by LC-MS/MS (instrument: LC-MS/MS-19, TQ5500 Triple quad); internal Standard (IS) was tolbutamide; mass spectrum conditions: an electrospray ion source and a negative ion multiple reaction detection (Tizoxanide: […] ACQUITY UPLC CORTECS T3, 2.7 μm (2.1×100 mm); column temperature was 40° C.; flow rate was 0.6 mL/min. The pharmacokinetic parameters were calculated by utilizing WinNonlin according to the plasma concentration data at different time points. The results are shown in Table 1: […]

DHBV = test: Evaluation of in vivo anti-hepatitis B virus effect (serum DHBV DNA, dot-blot hybridization); design: species or system sheld ducks (Tadorna); details: intragastric once daily
Experimental: The sheld ducks (Tadorna) with vertical transmission infection and positive DHBV DNA were randomly grouped, 8 sheld ducks each group. […] Blood was collected intravenously prior to administration (T0) and 7 days (T7), 14 days (T14), 21 days (T21) and 28 days ([…]) after administration, and the serum was separated and frozen at -70° C. for determination. Determination of DHBV DNA content in serum by using dot-blot molecular hybridization was as follows: the duck serum described above was taken, spots were simultaneously formed on detection films for each batch, the change of the DHBV DNA level in the duck serum was determined, the DHBV DNA probe was labeled by ^32P according to the method of the instruction of the nick translation kit, and a duck serum dot-blot experiment was performed.

[2] = system: influenza A virus mouse lung adaptive strain A/PR/8/34; format: in vivo, Kunming mice
[3] = in vivo, po; cited from earlier work
[4] = 200 mg/kg active ingredient basis, T0 (prior to administration)
[5] = 200 mg/kg active ingredient basis, T7 (7 days)
[6] = 200 mg/kg active ingredient basis, T14 (14 days)
[7] = 200 mg/kg active ingredient basis, T21 (21 days)
[8] = 200 mg/kg active ingredient basis, T28 (28 days)

## O=C(Nc1ncc([N+](=O)[O-])s1)c1ccccc1O [Tizoxanide choline salt of formula (I), tizoxanide choline salt]
[1]
  AUC(0-t): 2070.01 ng·h/mL
  AUC(0-∞): 2280.30 ng·h/mL
  Cmax: 837.16 ng/mL
  T1/2: 2.53 h
  Tmax: 0.25 h
DHBV; 100 mg/kg active ingredient basis, T0 (prior to administration)
  OD490 value: 1.47 ± 0.20
DHBV; 100 mg/kg active ingredient basis, T7 (7 days)
  OD490 value: 0.43 ± 0.18**ΔΔ
DHBV; 100 mg/kg active ingredient basis, T14 (14 days)
  OD490 value: 0.39 ± 0.34**ΔΔ
DHBV; 100 mg/kg active ingredient basis, T21 (21 days)
  OD490 value: 0.34 ± 0.25**ΔΔ
DHBV; 100 mg/kg active ingredient basis, T28 (28 days)
  OD490 value: 0.53 ± 0.37**ΔΔ
DHBV; [4]
  OD490 value: 0.96 ± 0.47
DHBV; [5]
  OD490 value: 0.15 ± 0.08**ΔΔ
DHBV; [6]
  OD490 value: 0.10 ± 0.05**ΔΔ
DHBV; [7]
  OD490 value: 0.07 ± 0.04**ΔΔ
DHBV; [8]
  OD490 value: 0.27 ± 0.17**ΔΔ
[2]; mouse, in vivo
  Survival rates: 9/10 and 3/10

## CC(=O)Oc1ccccc1C(=O)Nc1ncc([N+](=O)[O-])s1 [Nitazoxanide, o-N-(5-nitrothiazol-2-yl)carbamoyl-phenol-acetate, reference compound]
[1]
  AUC(0-t): 1325.50 ng·h/mL
  AUC(0-∞): 1327.91 ng·h/mL
  Cmax: 380.55 ng/mL
  T1/2: 0.65 h
  Tmax: 2.00 h
DHBV; [4]
  OD490 value: 1.67 ± 0.11
DHBV; [5]
  OD490 value: 1.37 ± 0.27
DHBV; [6]
  OD490 value: 1.19 ± 0.51
DHBV; [7]
  OD490 value: 0.72 ± 0.38**ΔΔ
DHBV; [8]
  OD490 value: 0.72 ± 0.48**ΔΔ
[2]; 50 mg/kg active ingredient basis, intragastric 2 times daily for 5 days, […], observed 14 days
  Survival rates: 2/10
[2]; 100 mg/kg active ingredient basis, intragastric 2 times daily for 5 days, […], observed 14 days
  Survival rates: 7/10
[3]
  original form of nitazoxanide in blood: undetectable
